The values below come from US4569791A, “Anti-diabetic compounds” (Eli Lilly and Company, priority 1984, dated 1986).

Assay [1] has as its system isolated rat adipocytes. The assay is described as follows: Biological Activity in Isolated Rat Adipocytes (incorporation of 2-3H-glucose in total fat cell lipid). The assay is classed as cell-based. Conditions: for ED50: rat adipocytes, 2-3H-glucose incorporation into lipid, 37° for 1 hr, mean ±SEM; for Relative Potency: biological activity in rat adipocytes, human proinsulin = 1. On the procedure: C. Biological Activity in Isolated Rat Adipocytes
Adipocytes were prepared from epididymal fat pads by a modification (Huber, supra) of the collagenase digestion procedure of Rodbell, supra. Krebs-Ringer-HEPES (KRH) buffer, pH 7.4, containing 4% bovine serum albumin and 0.55 mM glucose was used in all isolation and incubation steps.
Biological activity was assessed according to the method of Moody, A. J., Stan, M. A., Stan, M., and Glieman, J., Horm. Metab. Res. 6, 12-16 (1974) by monitoring the incorporation of 2-^3 H-glucose in total fat cell lipid. […] Radioactivity was determined in a Searle Isocap 300 liquid scintillation counter at an efficiency of approximately 30%. Blanks were prepared in which the scintillation fluid was added to the vials prior to the addition of cells. The average counts obtained from these vials were subtracted from those observed in all other samples.
Competitive binding curves and biological activity dose-response curves were analyzed using the PREFIT and ALLFIT programs [DeLean, A., Munson, P. J., and Rodbard, D., Am. J. Physiol. 235, E97-E102 (1978)] based on a four-parameter logistic model. These analyses indicated the concentration of insulin or proinsulin necessary to produce a half-maximal response, as well as the maximal and minimal values. All values are presented as the mean ±SEM.

Assay [2] deals with insulin receptor on isolated fat cells. In words: Isolated Fat Cell Radioreceptor Assay (displacement of 125I-labeled insulin). The settings on record: for Relative Potency: isolated fat cell radioreceptor assay, human proinsulin = 1; for ED50: isolated fat cells, 125I-labeled insulin 1-2×10^-11 M, 15° C., two hours. Type of assay: binding. On the procedure:
B. Isolated Fat Cell Radioreceptor Assay
Isolated fat cells were prepared by a modification [Huber, C. T., Solomon, S. S., and Duckworth, W. C., J. Clin. Invest. […] All incubations were in Krebs-Ringer-Hepes (KRH) buffer, pH 7.4, with 4% bovine serum albumin (BSA) in a total volume of 2 ml. […] At selected times, triplicate 300 μl aliquots were removed and added to microfuge tubes containing 100 μl dinonyl phthalate [see Gliemann, J., Osterlind, K., Vinten, J., and Gammeltoft, S., Biochem. Biophys. Acta. […] After centrifugation for one minute in a microfuge, the tubes were cut through the oil layer, and the cell pellet was counted using a gamma counter to determine binding.

Assay [3] concerns insulin receptor on IM-9 cells. The assay is described as follows: IM-9 Radioreceptor Assay (displacement of 125I-insulin). The settings on record: for ED50: IM-9 cells, 125I-insulin 1-2×10^-11 M, 15° C., two hours; for Relative Potency: IM-9 radioreceptor assay, human proinsulin = 1. The assay is classed as binding, human. The procedure: A. IM-9 Radioreceptor Assay
IM-9 cells were grown in RPMI media containing 2 mM glutamine, 25 mM HEPES, and 10% fetal bovine serum. […] Incubations were carried out in 1.5 ml microfuge tubes at 15° C. for two hours. Concentrations of stock solutions containing insulin, proinsulin, or compound of this invention used in the binding studies were established by amino acid analysis and by their absorbance at 276 nm. The cells were resuspended during the assay every 30 minutes by inverting the tubes several times. At the end of the incubation, the tubes were centrifuged for one minute in a Beckman Microfuge, the supernant was aspirated, the tips of the tubes containing the cell pellet were excised, and the radioactivity was measured.
(Loss of bound radioactivity is the signal in a displacement assay; it reports binding, not function.)

As to Human Insulin [reference compound], in assay [1], the ED50 is 5.32 ± 0.7 × 10^-11 M.
(32-33 split)HPI [(32-33 split) HPI]: the “Relative Potency” value in assay [2], in assay [1] and in assay [3] was 5 in each case. Moreover, the ED50 in assay [2] was 5.29 ± 1.8 × 10^-8 M; in assay [1] it was 2.56 ± 0.2 × 10^-9 M; in assay [3], 5.92 ± 0.7 × 10^-9 M.
des(31,32)HPI [des (31,32) HPI]: the “Relative Potency” value in assay [2] turned out to be 9; in assay [1], 5; in assay [3], 5. Besides, the ED50 is listed as 2.85 ± 0.1 × 10^-8 M in assay [2], 2.68 ± 0.5 × 10^-9 M in assay [1] and 5.60 ± 0.3 × 10^-9 M in assay [3].
In the case of Human Proinsulin [reference compound], the “Relative Potency” value in assay [2], in assay [1] and in assay [3] was 1 in each case. Besides, the figures for the ED50 in assay [2], in assay [1] and in assay [3] were 2.55 ± 0.6 × 10^-7 M, 1.24 ± 0.2 × 10^-8 M and 2.97 ± 0.2 × 10^-8 M, respectively.
